Test results: ChEMBL document CHEMBL1201862, “PubChem BioAssay data set” (2004)
Activity calls are given as the source filed them.

Experiments:
[1] = insulin promoter down-regulators in MIN6 cells, imaging, high-content screening, mouse beta cells (AID 1628); type: functional
[2] = cytotoxicity in MIN6 insulinoma cells, dose response, cytotoxicity control, cell-based, mouse insulinoma (AID 2122); type: functional;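 also: confirmatory high-throughput counterscreen run to flag cytotoxic compounds; mouse MIN-6 beta cells carrying an insulin promoter eGFP reporter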
[3] = growth suppression of PTEN-null colon cells, dose response, cell-based, HCT116 PTEN knockout (AID 1047); type: functional;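 also: HCT116 colon tumor cells with PTEN knocked out; cells exposed to compound for 60 hours before readout; potency for loss of cell viability measured by luminescence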
[4] = growth suppression of beta-catenin-knockout colon cells, dose response, cell-based, HCT116, human colon tumor (AID 1045); type: functional;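 also: HCT116 colon tumor cells with beta catenin knocked out; cells exposed to compound for 60 hours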
[5] = THP-1 cell cytotoxicity, dose response, cytotoxicity control for non-replicating M. tuberculosis project (AID 489025); type: functional
[6] = HepG2 cell cytotoxicity, dose response, cytotoxicity control for non-replicating M. tuberculosis project (AID 489018); type: functional; conditions: Mycobacterium tuberculosis
[7] = Vero E6 cell cytotoxicity, dose response, cytotoxicity control for non-replicating M. tuberculosis project, secondary assay (AID 492998); type: functional, VeroE6; conditions: Vero C1008
cells = type: functional
Vero [8] = test: cells; type: functional; conditions: Chlorocebus sabaeus
Cytochrome P450 2C9 [9] = target: T1, Cytochrome P450 2C9 (Homo sapiens, UniProt P11712)
T1 sequence (P11712 whole entry): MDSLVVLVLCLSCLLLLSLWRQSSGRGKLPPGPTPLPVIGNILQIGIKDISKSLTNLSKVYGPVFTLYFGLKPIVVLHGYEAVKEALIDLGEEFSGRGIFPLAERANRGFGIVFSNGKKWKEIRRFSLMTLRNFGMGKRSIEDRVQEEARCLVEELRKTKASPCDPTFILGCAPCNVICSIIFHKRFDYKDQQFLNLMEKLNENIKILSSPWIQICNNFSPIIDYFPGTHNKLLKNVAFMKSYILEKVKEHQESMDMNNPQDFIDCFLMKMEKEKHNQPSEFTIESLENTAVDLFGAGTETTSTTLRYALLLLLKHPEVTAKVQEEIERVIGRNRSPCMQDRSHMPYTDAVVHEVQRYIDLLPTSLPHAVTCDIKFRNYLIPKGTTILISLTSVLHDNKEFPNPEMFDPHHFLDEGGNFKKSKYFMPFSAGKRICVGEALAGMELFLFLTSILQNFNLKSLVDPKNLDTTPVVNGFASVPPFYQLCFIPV

BJ [10] = test: cytotoxicity toward BJ-TERT fibroblasts, dose response, cell-based, RAS-independent, luminescence (AID 1933); type: functional; conditions: Homo sapiens
BJ [11] = test: cells; type: functional, cell-based; conditions: Homo sapiens
BJ [12] = test: cytotoxicity toward BJ-TERT-LT-ST fibroblasts, dose response, cell-based, RAS-independent, luminescence (AID 1935); type: functional; conditions: Homo sapiens;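 also: BJ fibroblasts immortalized with TERT plus LT and ST oncogenes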
[13] = cytotoxicity toward DRD oncogenic fibroblasts, dose response, cell-based, non-viral oncogenic, luminescence (AID 1934); type: functional; conditions: Homo sapiens
BJ [14] = test: cytotoxicity toward Ras-transformed BJeLR fibroblasts, dose response, cell-based, alamar blue fluorescence, cherrypicked samples (AID 2631); type: functional; conditions: Homo sapiens;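 also: confirmatory dose-response assay in RAS-dependent BJ fibroblasts engineered with TERT, LT and ST, with cytotoxicity read by fluorescence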
Vero [15] = test: cells; type: functional, cell-based; conditions: Chlorocebus sabaeus
[16] = target: T2, Heat shock factor protein 1 (Mus musculus, UniProt P38532); test: HSF1 potentiators in luciferase reporter cells, confirmation, cell-based, NIH3T3, luminescence, dose retest (AID 435004); type: functional;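 also: stress induced by proteasome inhibitor MG132 added 30 min after compound; luciferase reporter driven by HSF1 response element in NIH3T3 cells; actives raise luminescence as potentiators of the MG132 stress response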
T2 sequence (P38532 whole entry): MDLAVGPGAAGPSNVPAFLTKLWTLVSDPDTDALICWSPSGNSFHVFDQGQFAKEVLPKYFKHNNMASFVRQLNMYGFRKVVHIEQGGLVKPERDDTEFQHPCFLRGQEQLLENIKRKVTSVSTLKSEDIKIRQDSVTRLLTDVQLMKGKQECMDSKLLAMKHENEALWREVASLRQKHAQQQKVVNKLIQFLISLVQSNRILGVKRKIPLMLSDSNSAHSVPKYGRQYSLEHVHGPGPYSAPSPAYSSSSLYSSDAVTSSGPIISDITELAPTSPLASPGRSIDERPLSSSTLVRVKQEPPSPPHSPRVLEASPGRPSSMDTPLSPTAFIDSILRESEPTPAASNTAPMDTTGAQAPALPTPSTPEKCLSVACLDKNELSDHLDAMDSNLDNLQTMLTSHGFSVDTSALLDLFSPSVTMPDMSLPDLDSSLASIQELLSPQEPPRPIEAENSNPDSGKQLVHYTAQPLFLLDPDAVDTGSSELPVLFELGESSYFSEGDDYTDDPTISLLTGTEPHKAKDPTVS

[17] = target: T3, High affinity choline transporter 1 (Homo sapiens, UniProt Q9GZV3); test: CHT inhibitors, dose response, cell-based, 5-point CRC, membrane potential dye (AID 504840); type: functional
T3 sequence (Q9GZV3 whole entry): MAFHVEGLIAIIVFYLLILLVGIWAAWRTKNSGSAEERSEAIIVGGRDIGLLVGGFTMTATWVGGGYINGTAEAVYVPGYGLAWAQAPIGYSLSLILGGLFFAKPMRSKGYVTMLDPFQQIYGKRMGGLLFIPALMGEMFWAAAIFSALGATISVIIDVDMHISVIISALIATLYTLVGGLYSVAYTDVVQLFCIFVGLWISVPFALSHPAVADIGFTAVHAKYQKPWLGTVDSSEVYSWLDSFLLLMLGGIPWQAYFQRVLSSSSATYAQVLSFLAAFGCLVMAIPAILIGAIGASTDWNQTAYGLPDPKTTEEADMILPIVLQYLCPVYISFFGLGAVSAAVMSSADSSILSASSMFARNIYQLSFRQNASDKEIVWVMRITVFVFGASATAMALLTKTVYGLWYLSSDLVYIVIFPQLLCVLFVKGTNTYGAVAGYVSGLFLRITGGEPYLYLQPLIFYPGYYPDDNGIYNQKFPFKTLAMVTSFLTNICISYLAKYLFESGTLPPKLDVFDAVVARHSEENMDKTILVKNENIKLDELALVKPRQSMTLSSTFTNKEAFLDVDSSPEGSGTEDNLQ

[18] = target: T3, High affinity choline transporter 1; test: CHT inhibitors, dose response, cell-based, 10-point CRC, membrane potential dye (AID 588401); type: functional;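 also: membrane potential dye fluorescence of choline-evoked depolarization via CHT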
[19] = NIH-3T3 fibroblast cytotoxicity, dose response, cytotoxicity control, cell-based, fluorescence, Alamar Blue, secondary assay (AID 2327); type: functional;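 also: NIH-3T3 mouse fibroblasts cultured with fluconazole at 8 µg/mL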
[20] = C. albicans growth with fluconazole, confirmation, fluorescence, retest (AID 2467); type: functional, cell-based
[21] = target: T4, Serine/threonine-protein phosphatase (Candida dubliniensis (strain CD36 / CBS 7987 / NCPF 3949 / NRRLY-17841) (Yeast), UniProt B9W6M3); test: calcineurin pathway inhibitors in yeast reporter, dose response, S. cerevisiae, CDRE-lacZ, luminescence, secondary (AID 2388); type: functional, cell-based;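 also: yeast reporter cells carrying a calcineurin-responsive lacZ construct stimulated with calcium chloride; luminescent beta-galactosidase reporter signal in whole cells rather than isolated phosphatase activity; potency for inhibition where a drop in reporter signal means calcineurin blockade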
T4 sequence (B9W6M3 whole entry): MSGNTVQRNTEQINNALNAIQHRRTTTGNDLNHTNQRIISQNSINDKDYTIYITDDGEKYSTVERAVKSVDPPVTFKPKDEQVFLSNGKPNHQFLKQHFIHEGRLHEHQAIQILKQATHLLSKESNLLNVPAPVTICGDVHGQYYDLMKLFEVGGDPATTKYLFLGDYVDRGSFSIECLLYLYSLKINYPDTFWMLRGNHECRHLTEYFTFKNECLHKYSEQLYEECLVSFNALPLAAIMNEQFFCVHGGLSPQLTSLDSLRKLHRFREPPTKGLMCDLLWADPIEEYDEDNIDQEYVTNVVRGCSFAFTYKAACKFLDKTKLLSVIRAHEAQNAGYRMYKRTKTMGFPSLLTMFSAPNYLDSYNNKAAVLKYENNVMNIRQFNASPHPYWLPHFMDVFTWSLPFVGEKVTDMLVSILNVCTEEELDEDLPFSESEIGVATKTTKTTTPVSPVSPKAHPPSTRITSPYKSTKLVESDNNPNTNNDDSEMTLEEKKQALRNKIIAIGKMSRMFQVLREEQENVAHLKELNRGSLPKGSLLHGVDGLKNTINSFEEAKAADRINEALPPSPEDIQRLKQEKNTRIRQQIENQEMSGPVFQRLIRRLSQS

[22] = target: ATP-dependent molecular chaperone HSP82 (Candida albicans (strain WO-1) (Yeast), UniProt C4YTQ8); test: loss of DOC-induced GRE-beta-galactosidase reporter signal, dose response, Hsp90 inhibitor project, S. cerevisiae, luminescence (AID 2400); type: functional, cell-based;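 also: beta-galactosidase luminescence from glucocorticoid response element reporter as proxy for Hsp90 function; inhibitor potency where signal loss means Hsp90 inhibition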
Chain of ATP-dependent molecular chaperone HSP82 (C4YTQ8 whole entry): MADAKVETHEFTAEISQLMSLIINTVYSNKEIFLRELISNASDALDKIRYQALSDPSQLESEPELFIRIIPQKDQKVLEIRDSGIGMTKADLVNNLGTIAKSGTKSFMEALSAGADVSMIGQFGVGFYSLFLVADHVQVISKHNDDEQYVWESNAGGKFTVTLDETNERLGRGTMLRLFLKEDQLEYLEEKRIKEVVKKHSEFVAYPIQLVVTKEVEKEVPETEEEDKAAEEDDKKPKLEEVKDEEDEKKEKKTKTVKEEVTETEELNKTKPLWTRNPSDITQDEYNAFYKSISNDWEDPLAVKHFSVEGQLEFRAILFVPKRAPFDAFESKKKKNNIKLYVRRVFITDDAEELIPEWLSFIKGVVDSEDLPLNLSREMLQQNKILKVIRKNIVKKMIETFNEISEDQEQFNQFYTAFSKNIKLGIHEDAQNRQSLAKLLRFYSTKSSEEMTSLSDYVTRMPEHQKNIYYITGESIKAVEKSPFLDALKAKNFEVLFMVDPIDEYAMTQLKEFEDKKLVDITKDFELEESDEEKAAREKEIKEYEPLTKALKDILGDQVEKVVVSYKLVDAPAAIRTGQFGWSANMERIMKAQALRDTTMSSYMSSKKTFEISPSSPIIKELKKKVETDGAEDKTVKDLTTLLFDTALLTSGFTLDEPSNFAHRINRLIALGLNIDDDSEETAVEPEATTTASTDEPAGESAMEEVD

[23] = cytotoxicity in HPDE-C7 cells, cell-based, fluorescence, HTS (AID 430); type: functional; conditions: Homo sapiens
[24] = inhibitors of intracellular T. cruzi replication, confirmation, NIH3T3 host cells, beta-gal luminescence (AID 2044); type: functional, cell-based;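 also: intracellular parasites grown in NIH/3T3 mouse fibroblasts as host cells; luminescent beta-galactosidase reporter signal from transgenic T. cruzi replicating inside host cells; inhibitors lower the luminescence signal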
[25] = cytotoxicity in KRAS-transformed pancreatic duct cells, primary screen, cell-based, fluorescence, HTS (AID 431); type: functional; conditions: Homo sapiens;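 also: cell line used: HPDE-C7K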
[26] = cytotoxicity toward NIH3T3 fibroblasts, dose response, counter-screen, cell-based, ATP luminescence, mouse fibroblasts (AID 2010); type: functional;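 also: cells exposed to compound for about 90 hours before reading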
[27] = target: T5, Replicative DNA helicase DnaB (Mycobacterium tuberculosis, UniProt P9WMR3); test: DnaB intein splicing inhibitors, dose response, biochemical, cell-free fluorescence (AID 449749); type: functional
T5 sequence (P9WMR3 whole entry): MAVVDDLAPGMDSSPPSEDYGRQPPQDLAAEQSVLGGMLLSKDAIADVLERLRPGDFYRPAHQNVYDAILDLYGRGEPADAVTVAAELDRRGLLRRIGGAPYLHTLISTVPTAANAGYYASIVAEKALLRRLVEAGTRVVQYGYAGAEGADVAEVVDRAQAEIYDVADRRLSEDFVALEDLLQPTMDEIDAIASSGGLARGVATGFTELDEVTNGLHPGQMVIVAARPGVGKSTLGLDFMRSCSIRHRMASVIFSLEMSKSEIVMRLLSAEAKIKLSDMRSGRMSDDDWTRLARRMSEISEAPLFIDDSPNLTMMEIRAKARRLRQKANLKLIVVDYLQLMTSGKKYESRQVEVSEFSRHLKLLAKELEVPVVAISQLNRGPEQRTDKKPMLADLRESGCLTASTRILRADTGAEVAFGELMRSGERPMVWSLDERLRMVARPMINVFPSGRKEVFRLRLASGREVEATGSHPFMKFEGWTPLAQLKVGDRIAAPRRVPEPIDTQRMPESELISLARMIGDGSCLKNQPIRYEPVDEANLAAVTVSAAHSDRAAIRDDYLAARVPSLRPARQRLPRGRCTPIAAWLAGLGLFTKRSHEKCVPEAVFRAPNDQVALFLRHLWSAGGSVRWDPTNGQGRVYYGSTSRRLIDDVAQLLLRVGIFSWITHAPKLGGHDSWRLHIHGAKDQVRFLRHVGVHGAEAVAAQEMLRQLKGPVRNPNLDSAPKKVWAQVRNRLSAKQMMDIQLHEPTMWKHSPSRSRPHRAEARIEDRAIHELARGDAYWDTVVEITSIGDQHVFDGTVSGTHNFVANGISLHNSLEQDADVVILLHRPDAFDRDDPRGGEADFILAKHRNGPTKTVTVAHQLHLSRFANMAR

Protein RecA = target: T6, Protein RecA (Mycobacterium tuberculosis, UniProt P9WHJ3); test: Fluorescence Cell-Free Homogeneous Dose Retest to Identify Inhibitors of RecA-Intein Splicing Activity. [Related pubchem assays (depositor defined):AID2097, AID2223, AID489010, AID492950]; type: functional
T6 sequence (P9WHJ3 whole entry): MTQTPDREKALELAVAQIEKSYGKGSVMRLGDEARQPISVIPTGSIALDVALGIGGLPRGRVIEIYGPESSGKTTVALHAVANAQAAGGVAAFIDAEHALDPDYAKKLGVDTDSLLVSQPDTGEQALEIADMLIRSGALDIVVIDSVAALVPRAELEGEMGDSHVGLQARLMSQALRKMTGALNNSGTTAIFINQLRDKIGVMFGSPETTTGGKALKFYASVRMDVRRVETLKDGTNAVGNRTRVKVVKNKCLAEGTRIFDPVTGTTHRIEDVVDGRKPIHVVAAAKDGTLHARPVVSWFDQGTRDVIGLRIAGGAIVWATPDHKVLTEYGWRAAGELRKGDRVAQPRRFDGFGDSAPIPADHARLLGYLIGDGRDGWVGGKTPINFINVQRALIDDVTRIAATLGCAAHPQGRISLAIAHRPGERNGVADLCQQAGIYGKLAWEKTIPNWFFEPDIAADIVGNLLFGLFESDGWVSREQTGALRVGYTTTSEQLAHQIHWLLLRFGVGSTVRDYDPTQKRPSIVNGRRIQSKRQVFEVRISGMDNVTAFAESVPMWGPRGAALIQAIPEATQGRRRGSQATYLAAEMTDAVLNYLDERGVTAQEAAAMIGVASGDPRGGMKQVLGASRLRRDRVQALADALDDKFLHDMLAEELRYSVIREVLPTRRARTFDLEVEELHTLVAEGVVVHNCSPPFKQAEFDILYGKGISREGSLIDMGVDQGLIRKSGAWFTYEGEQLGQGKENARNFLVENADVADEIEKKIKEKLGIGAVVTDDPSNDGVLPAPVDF

[28] = target: Eukaryotic translation initiation factor 4E (Mus musculus, UniProt P63073); test: eIF4E–eIF4G protein interaction inhibitors, dose response, biochemical, TR-FRET (AID 855); type: functional;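 also: potency for disrupting eIF4E binding to eIF4GI seen as loss of FRET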
Chain of Eukaryotic translation initiation factor 4E (P63073 whole entry): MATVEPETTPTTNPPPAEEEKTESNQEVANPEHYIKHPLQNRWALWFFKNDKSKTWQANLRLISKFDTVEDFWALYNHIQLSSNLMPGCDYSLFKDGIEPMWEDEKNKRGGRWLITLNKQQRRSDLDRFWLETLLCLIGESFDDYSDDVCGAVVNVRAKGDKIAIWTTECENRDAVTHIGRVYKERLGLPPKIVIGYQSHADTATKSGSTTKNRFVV

Cytochrome P450 2C9 [29] = target: T1, Cytochrome P450 2C9; remark: listed apart in the source

## CCOc1cc(CNCCO)cc(Br)c1OCc1ccccc1Cl
[1]
  IC50: 1.43 µM (active)
[2]
  IC50: 1.56 µM (active)
[3]
  EC50: 9.8 µM (active)
[4]
  EC50: 9.13 µM (active)
[5]
  CC50: 11.5 µM (active)
[6]
  CC50: 14.1 µM (active)
[7]
  CC50: 19.7 µM (active)
cells
  IC50: 18.4 µM (active)
Vero [8]
  CC50: 13.8 µM (active)
Cytochrome P450 2C9 [9]
  AC50: 28.2 µM (inconclusive)

## CC1=CC(=O)C=C(C)C1=NOc1ccccc1[N+](=O)[O-]
BJ [10]
  EC50: 17.2 µM (inconclusive)
BJ [11]
  EC50: 11.1 µM (inconclusive)
BJ [12]
  EC50: > 75 µM (not active)
[13]
  EC50: > 150 µM (not active)
BJ [14]
  EC50: > 66.7 µM (inactive)

## CCOc1ccc(/C=C/c2nc(C#N)c(NCCCN(C)C)o2)cc1
Vero [15]
  IC50: 21.1 µM (active)
Vero [8]
  CC50: > 25 µM (active)

## CCC(NC(C)c1ccccc1)=C1C(=O)N(C)C(=O)N(C)C1=O (stereo unspecified)
[1]
  IC50: 2.84 µM (active)
[2]
  IC50: 2.81 µM (active)
[3]
  EC50: 47.9 µM (active)
[4]
  EC50: 50 µM (active)
[16]
  EC50: > 260 µM (inactive)
[17]
  IC50: 9.12 µM (active)
[18]
  IC50: 8.43 µM (active)

## CN(C)S(=O)(=O)Oc1cccc(C(=O)Nc2cccc(Cl)c2)c1
[19]
  EC50: > 150 µM (inactive)
[20]
  EC50: 2.39 µM (active)
[21]
  EC50: > 180 µM (inactive)
[22]
  EC50: 24.7 µM (active)

## N=c1c2c(-c3ccccc3)c(-c3ccccc3)n(Cc3ccco3)c2ncn1Cc1ccco1
[1]
  IC50: 1.72 µM (active)
[2]
  IC50: 2.49 µM (active)
[23]
  EC50: 7.73 µM (active)
[24]
  EC50: 0.68 µM (active)
[25]
  EC50: 11.9 µM (active)
[3]
  EC50: 1.16 µM (active)
[26]
  EC50: 13.5 µM (active)
[4]
  EC50: 0.891 µM (active)
[27]
  AC50: 6.15 µM (active)
Protein RecA
  EC50: 8.76 µM (active)

## COc1ccccc1/C=C/C(=O)c1c(O)nc(C)c2c1CCCC2
[28]
  IC50: 50 µM (inactive)
Vero [15]
  IC50: 20.3 µM (active)
Vero [8]
  CC50: > 25 µM (active)
Cytochrome P450 2C9 [29]
  AC50: inconclusive

## COc1ccc(C2c3ccc4ccccc4c3Oc3ncn(CCN4CCOCC4)c(=N)c32)cc1 (stereo unspecified)
[19]
  EC50: > 160 µM (inactive)
[20]
  EC50: 1.9 µM (active)
[21]
  EC50: > 180 µM (inactive)
[22]
  EC50: > 160 µM (inactive)
